In ChEMBL document CHEMBL1201862, “PubChem BioAssay data set” (2004):
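Protocol summary: plate cells (96-well), add compound at 5 concentrations, incubate 48 h, interpolate endpoints linearly. GI50 marks 50% less growth.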 Calls of active or inactive are those of the source. No stated cut-off is given here; in the data, active = GI50 up to about 1.1 µM and inactive = higher.

Columns and labels:
Experiment in all cases: inhibition of tumour cell growth, NCI panel, 48 h
[1] = system: HL-60
[2] = system: NCI-H522
[3] = system: HOP-62
[4] = system: Malme-3M
[5] = system: K562
[6] = system: HOP-92
[7] = system: M14
[8] = system: 786-0
[9] = system: SF-295
[10] = system: SK-MEL-28
[11] = system: OVCAR-3
[12] = system: T47D
[13] = system: SK-MEL-2
[14] = system: HCC 2998
[15] = system: RPMI-8226
[16] = system: UACC-257
[17] = system: NCI-H460
[18] = system: LOX IMVI
[19] = system: UO-31
[20] = system: A549

Measured: GI50

O=P(Nc1ccccc1)(Oc1ccccc1)N1CCN(c2ccccc2)CC1 (stereo not given)
inactive: [1] 25 µM | [2] 4.85 µM | [3] 18 µM | [4] 17.2 µM | [5] 49.1 µM | [6] 18.7 µM | [7] 15.2 µM | [8] 22.1 µM | [9] 18.4 µM | [10] 19.7 µM | [11] 18.7 µM | [12] 22.6 µM | [13] 20.9 µM | [14] 16.3 µM | [15] 40.7 µM | [16] 20.9 µM | [17] 17.4 µM | [18] 17.4 µM | [19] 14.9 µM | [20] 17.5 µM

C=CCc1cc(-c2cc(CC=C)c(O)c(CN(CC)CC)c2)cc(CN(CC)CC)c1O
inactive: [1] 35.4 µM | [2] 20.6 µM | [3] 47.4 µM | [4] 16.8 µM | [5] 26.1 µM | [6] 18 µM | [7] 8.93 µM | [8] 30.5 µM | [9] 33 µM | [10] 28.6 µM | [11] 64 µM | [12] 43 µM | [13] 26.9 µM | [14] 29 µM | [15] 27.5 µM | [16] 23.6 µM | [17] 21.3 µM | [18] 16 µM | [19] 15.2 µM | [20] 71.6 µM
